The test system of one assay is tone genes. As to the kind of experiment: Human Ex-vivo Pre-Clinical Model, fold regulation changes by clinical formulations. In kind it is cell-based. As to conditions: FIGS. 25a and 25b. As for the experimental part:
FIGS. 25a and 25b show two respective tables showing ex-vivo model fold regulation changes indicating significant down-regulation by clinical formulations in the Human Ex-vivo Pre-Clinical Model.
(§1) The ex-vivo screening method has provided identification of agents consistent with in-vitro studies and which have proven positive clinically. One such example is hexyldecanol. […] For example, total melanin assays were performed using a rat melanoma line known to produce melanin. […] Therefore, promising tone agents such as hexyldecanol identified from the in-vitro model and the ex-vivo model have been tested in clinical settings.

Assay [1] concerns rat melanoma line known to produce melanin. In words: total melanin assay in melanoma cell culture. In kind it is cell-based. To be noted: rat melanoma cell cultures; compared to controls. The protocol:
as §1

In assay [2] the test system is facial skin tone (spots, melanin evenness). As to the kind of experiment: 9-week clinical study, randomized, double-blind, vehicle-controlled, split-face. The format is in vivo, human. An excerpt: For example, hexyldecanol was compared to vehicle controls and positive controls (5% Niacinamide+1% undecylenoyl phenylalanine) through a 9-week period. Specifically the trial included a 9-week clinical study with a randomized, double-blind, round robin, vehicle-controlled, split-face design, including one week normalization period whereby 330 subjects received test product.

For a further assay, the system named is tone genes of interest. In words: ex-vivo tissue culture exposed to compounds known to stimulate the pigmentation pathway, tone gene regulation. As to conditions: p≤0.1, minimum of 2-10 experiments each. In kind it is cell-based, human.
Assay [3] deals with 9 epidermal tone genes. As to the kind of experiment: Stem Cell Factor/Endothelin 1 driven ex-vivo human skin tissue, regulation of tone genes vs untreated control. The format is cell-based. To be noted: number of the 9 epidermal genes regulated, Stem Cell Factor/Endothelin 1 driven tissue sample, 37° C. and 70% humidity. As for the experimental part:
Referring to FIGS. 19 to 23, examples (of 2-10 experiments each) are shown for the regulation of the 9 epidermal tone genes against an untreated control in ex-vivo tissue driven by the combination of Stem Cell Factor and Endothelin at 37° C. and 70% humidity for niacinamide, hexamidine, N-Acetyl glucosamine, kojic acid, tranexamic acid, and undecylenoyl phenylalanine. […] For instance, out of the 9 epidermal genes, at least one compound (undecylenoyl phenylalanine) regulated 5 genes (with a statistical significance of p<0.1 or better) while two compounds regulated 2 or fewer genes (with a p<0.1 or better). Table 2 below summarizes the number of epidermal genes regulated by certain materials in a Stem Cell Factor/Endothelin 1 driven tissue sample with a statistical significance of p≤0.1.
In example embodiments, tone is driven by application of stem cell factor and/or endothelin (with skin preparation, culturing, and mRNA processing being completed as previously described). In an example embodiment, skin samples are placed within 6-well plates, with 2.5 ml of media per well. A concentration of eighty nanograms per milliliter of stem cell factor as well as eighty nanograms per milliliter of endothelin was applied to tissue in the wells, with the media being refreshed daily. The culture was maintained for seven days. […]

In assay [4] the test system is 9 epidermal tone genes. As to the kind of experiment: endogenously driven ex-vivo human skin tissue, regulation of tone genes (mRNA/PCR) vs untreated control. In kind it is cell-based. As to conditions: number of epidermal genes regulated, endogenously driven tissue sample, 37° C. and 70% humidity, 2-10 experiments each. The protocol:
Referring to FIGS. 11 to 15, examples are shown for the regulation of the 9 epidermal tone genes against an untreated control in an endogenously driven ex-vivo tissue system at 37° C. and 70% humidity for niacinamide, hexamidine, N-Acetyl glucosamine, kojic acid, tranexamic acid, and undecylenoyl phenylalanine (2-10 experiments each). […] For instance, out of the 9 epidermal genes, at least one compound (Hexamidine) regulated 9 genes (with a statistical significance of p<0.1 or better) while two compounds regulated 5 or fewer genes (with a p<0.1 or better). Table 1 below summarizes the number of epidermal genes regulated by certain materials in an endogenously driven tissue sample with a statistical significance of p≤0.1.
Culturing involved setting up culture plates: putting 2.5 ml of media or treatment into each well of a 6-well tissue plate, adding one Millicell culture insert to each well, and putting 100 μl of 1×DMEM on the center of each insert membrane. Squares were selected randomly placed into each of the inserts (one piece of skin per insert), on top of the media on the membrane. The plates were stored at either 33° C. (though an additional non-limiting example would be 37° C. depending on the experiment endpoint). […]
Culture and treatment of the model comprised replicates of n=5 (though replicates of additional quantities may be used such as n=6). […]

As to `CCCCCCCCC(CO)CCCCCC` (stereo not drawn) [Hexyldecanol, hexyldecanol], in the assay on tone genes, the “gene regulation in ex-vivo model” value is reported as “down-regulation”. Also, in assay [1], the total melanin produced result is given as “decreased total melanin”. The “overall comparison to vehicle” value in assay [2] (significant if p<0.10 (1-sided) vs. vehicle) is listed as “statistically better than vehicle controls”. Besides, in assay [2] (versus vehicle control), the melanin evenness result was “significantly different from controls” and the “spot area fraction (total area of spots per face)” value is “decreased versus the control group”.

Regarding α-MSH [reference compound], the “regulation of tone genes of interest” value with tone genes of interest is listed as “up regulate one or more tone genes of interest”.

As for tranexamic acid, in the assay on 9 epidermal tone genes [3], the “# of Genes with p ≤ 0.1” value was determined as 3. In addition, the “# Genes (out of 9) with p ≤ 0.1” value in the assay with 9 epidermal tone genes [4] was 7.

As for “Stem Cell Factor: compound known to stimulate the pigmentation pathway; paracrine agent”, in the assay with tone genes of interest, the “regulation of tone genes of interest” value is given as “up regulate one or more tone genes of interest”.

The values are drawn from US10732171B2, “Human skin sample methods and models for validating hypotheses for mechanisms driving skin pigmentation” (The Procter & Gamble Company, priority 2011, dated 2020).
